Measurements taken from ChEMBL document CHEMBL4346732, “Inhibition of neutral lipid synthesis by avarols from a marine sponge” (Bioorg Med Chem Lett, 2019).
pIC50: −log10 of the molar value.

Columns and labels:
[1] = Inhibition of SOAT-mediated oleic acid-induced [14C]cholesterol ester accumulation in CHOK1 cells after 6 hrs using [14C]oleic acid by […]; format: cell-based; settings: Cricetulus griseus, CHO-K1, 6 h
CHO-K1 = assay: Cytotoxicity against CHOK1 cells assessed as reduction in cell viability; format: cell-based; settings: Cricetulus griseus
[2] = Inhibition of DGAT-mediated oleic acid-induced [14C]neutral lipid synthesis in CHOK1 cells after 6 hrs using [14C]oleic acid by […]; format: cell-based; settings: Cricetulus griseus, CHO-K1, 6 h
[3] = Inhibition of DGAT in CHOK1 cell microsomal fraction using [14C]palmitoyl-CoA as substrate measured after 15 mins TLC based method; parameters: species or system Cricetulus griseus
[4] = Inhibition of SOAT in CHOK1 cell microsomal fraction using [1-14C]oleoyl-CoA as substrate measured after 5 mins by TLC based method; parameters: species or system Cricetulus griseus
[5] = molecular target: T1, Sterol O-acyltransferase 2 (Chlorocebus aethiops, UniProt O77759); assay: Inhibition of African green monkey SOAT2 expressed in CHO cells using [1-14C]oleic acid incubated for 6 hrs by TLC based method; format: cell-based
T1 sequence (O77759 whole entry): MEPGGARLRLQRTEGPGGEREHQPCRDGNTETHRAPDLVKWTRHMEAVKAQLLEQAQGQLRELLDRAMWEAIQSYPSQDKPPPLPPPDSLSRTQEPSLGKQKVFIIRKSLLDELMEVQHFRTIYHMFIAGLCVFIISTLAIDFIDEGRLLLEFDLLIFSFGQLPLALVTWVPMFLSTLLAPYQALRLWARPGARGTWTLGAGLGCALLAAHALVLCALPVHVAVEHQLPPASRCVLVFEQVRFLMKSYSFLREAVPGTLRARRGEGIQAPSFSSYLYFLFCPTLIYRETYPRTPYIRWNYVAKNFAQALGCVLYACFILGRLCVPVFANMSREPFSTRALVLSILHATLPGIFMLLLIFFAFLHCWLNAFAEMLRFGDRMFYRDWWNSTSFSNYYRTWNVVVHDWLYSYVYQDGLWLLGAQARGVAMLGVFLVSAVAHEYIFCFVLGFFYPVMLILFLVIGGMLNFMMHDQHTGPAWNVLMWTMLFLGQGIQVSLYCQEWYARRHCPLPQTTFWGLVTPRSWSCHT

[6] = molecular target: T2, Sterol O-acyltransferase 1 (Cricetulus griseus, UniProt Q60457); assay: Inhibition of SOAT1 in CHO cell microsomal fraction using [1-14C]oleoyl-CoA as substrate measured after 5 mins by TLC based method
T2 sequence (Q60457 whole entry): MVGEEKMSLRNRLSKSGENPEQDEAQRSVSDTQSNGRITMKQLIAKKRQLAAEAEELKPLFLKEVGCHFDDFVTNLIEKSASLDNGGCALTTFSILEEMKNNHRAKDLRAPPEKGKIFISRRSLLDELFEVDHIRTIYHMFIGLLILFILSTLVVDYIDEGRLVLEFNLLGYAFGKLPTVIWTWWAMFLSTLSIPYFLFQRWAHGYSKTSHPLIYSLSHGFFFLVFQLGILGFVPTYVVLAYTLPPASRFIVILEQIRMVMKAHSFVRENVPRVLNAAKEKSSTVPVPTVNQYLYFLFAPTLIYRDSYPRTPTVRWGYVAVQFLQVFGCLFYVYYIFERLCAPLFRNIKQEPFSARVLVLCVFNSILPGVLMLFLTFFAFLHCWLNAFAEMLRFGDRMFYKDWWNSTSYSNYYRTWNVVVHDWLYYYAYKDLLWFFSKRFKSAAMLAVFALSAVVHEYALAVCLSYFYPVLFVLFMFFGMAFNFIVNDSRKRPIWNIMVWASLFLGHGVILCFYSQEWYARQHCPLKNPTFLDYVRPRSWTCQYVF

[7] = molecular target: T3, Sterol O-acyltransferase 1 (Chlorocebus aethiops, UniProt O77760); assay: Inhibition of African green monkey SOAT1 expressed in CHO cells using [1-14C]oleic acid incubated for 6 hrs by TLC based method; format: cell-based
T3 sequence (O77760 whole entry): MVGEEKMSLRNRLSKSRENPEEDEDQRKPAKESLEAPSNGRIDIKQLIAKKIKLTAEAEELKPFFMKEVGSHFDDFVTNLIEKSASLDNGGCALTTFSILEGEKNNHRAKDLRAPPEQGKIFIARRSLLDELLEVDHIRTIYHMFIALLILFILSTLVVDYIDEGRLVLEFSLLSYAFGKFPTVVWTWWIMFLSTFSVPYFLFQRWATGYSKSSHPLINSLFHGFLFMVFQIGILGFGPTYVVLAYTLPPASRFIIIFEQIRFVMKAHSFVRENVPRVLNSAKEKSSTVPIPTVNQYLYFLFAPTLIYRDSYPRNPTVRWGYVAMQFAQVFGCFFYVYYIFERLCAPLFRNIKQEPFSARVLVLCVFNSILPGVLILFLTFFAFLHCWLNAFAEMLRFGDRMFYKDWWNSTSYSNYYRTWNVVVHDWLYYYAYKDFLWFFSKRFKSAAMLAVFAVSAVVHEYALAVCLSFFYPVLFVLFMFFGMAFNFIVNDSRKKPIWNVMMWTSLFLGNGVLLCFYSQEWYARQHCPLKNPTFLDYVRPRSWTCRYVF

[8] = Inhibition of SOAT2 in CHO cell microsomal fraction using [1-14C]oleoyl-CoA as substrate measured after 5 mins by TLC based method; parameters: species or system Cricetulus griseus

Row | pIC50 [1] | pIC50 [2] | pIC50 [3] | pIC50 [4] | pIC50 [5] | pIC50 [6] | pIC50 [7] | pIC50 [8] | Compound | pIC50 (CHO-K1)
1 | 4.86 | < 4.51 |  |  |  |  |  |  | CC1=CCC[C@H]2[C@]3(C)Cc4cc(O)ccc4O[C@]3(C)CC[C@]12C | < 4.51
2 | 4.64 | < 4.56 |  |  |  |  |  |  | CC(=O)Oc1ccc(O)c(C[C@]2(C)[C@@H](C)CC[C@]3(C)C(C)=CCC[C@@H]23)c1 | < 4.56
3 | 4.98 | < 4.53 |  |  |  |  |  |  | C=C1CCC[C@H]2[C@](C)(Cc3cc(OC)ccc3O)[C@@H](C)CC[C@]12C | < 4.53
4 | 4.94 | < 4.53 |  |  |  |  |  |  | COc1ccc(O)c(C[C@]2(C)[C@@H](C)CC[C@]3(C)C(C)=CCC[C@@H]23)c1 | < 4.53
5 | 4.92 | < 4.56 |  |  |  |  |  |  | C=C1CCC[C@H]2[C@](C)(Cc3cc(O)ccc3OC(C)=O)[C@@H](C)CC[C@]12C | < 4.56
6 | 4.78 | 4.63 |  |  |  |  |  |  | CC(=O)Oc1ccc(OC(C)=O)c(C[C@]2(C)[C@@H](C)CC[C@]3(C)C(C)=CCC[C@@H]23)c1 | < 4.61
7 | 4.96 | < 4.64 |  |  |  |  |  |  | C=C1CCC[C@H]2[C@](C)(Cc3cc(OC(=O)CC)ccc3OC(=O)CC)[C@@H](C)CC[C@]12C | < 4.64
8 | 4.96 | 4.85 | 4.35 | 4.81 | 4.72 | 4.49 | 4.72 | 4.85 | C=C1CCC[C@H]2[C@](C)(Cc3cc(O)ccc3O)[C@@H](C)CC[C@]12C | < 4.51
9 | 4.78 | 4.87 |  |  |  |  |  |  | CCC(=O)Oc1ccc(OC(=O)CC)c(C[C@]2(C)[C@@H](C)CC[C@]3(C)C(C)=CCC[C@@H]23)c1 | < 4.64
10 | 4.97 | < 4.61 |  |  |  |  |  |  | C=C1CCC[C@H]2[C@](C)(Cc3cc(OC(C)=O)ccc3OC(C)=O)[C@@H](C)CC[C@]12C | < 4.61
11 | 4.88 | 4.56 |  |  |  |  |  |  | CC1=CCC[C@H]2[C@](C)(CC3=CC(=O)C=C(N)C3=O)[C@@H](C)CC[C@]12C | < 4.51
12 | 4.80 | < 4.56 |  |  |  |  |  |  | C=C1CCC[C@H]2[C@](C)(Cc3cc(OC(C)=O)ccc3O)[C@@H](C)CC[C@]12C | < 4.56
13 | 4.86 | < 4.56 |  |  |  |  |  |  | CC(=O)Oc1ccc(O)cc1C[C@]1(C)[C@@H](C)CC[C@]2(C)C(C)=CCC[C@@H]12 | < 4.56
14 | 5.24 | 5.17 | 4.70 | 5.14 | 4.83 | 4.92 | 4.85 | 5.09 | CC1=CCC[C@H]2[C@](C)(Cc3cc(O)ccc3O)[C@@H](C)CC[C@]12C [AVAROL] | < 4.51
